Experimental data published in patent US20250017846A1, “TOPICAL ANALGESICS” (THE REGENTS OF THE UNIVERSITY OF CALIFORNIA, priority 2023, published 2025).

Assays:
Assay type in all cases: in vivo, rat
[1] = system: carrageenan-induced hyperalgesia in rats; assay: Carrageenan-induced hyperalgesia, mechanical nociceptive threshold after topical administration; settings: male rats; carrageenan i.d.; 30 min later topical indomethacin 1 μg/μl with protamine 2 μg/μl, 30 μL; P<0.0001
Description: Male rats were treated with carrageenan (0.1% in 1 μg/5 μL) intradermally (i.d.), into the dorsum of the hind paw. Thirty minutes after the carrageenan administration, when hyperalgesia was established, animals received indomethacin combined with protamine or protamine alone, each in a volume of 30 μL, topically on the dorsum of one hind paw, at the site of the i.d. injection. Protamine was used at a concentration of 2 μg/μl and indomethacin was used at a concentration of 1 μg/μl. Mechanical nociceptive threshold was evaluated before carrageenan administration, and again 30 and 90 minutes after. […] Two-way repeated measures ANOVA, F(2.14)=40.46, P<0.0001. Bonferroni's multiple comparison post-hoc test. Data shown as mean±SEM; n=3 paws, per group.

[2] = system: rats with chemotherapy-induced painful peripheral neuropathy (CIPN); assay: Oxaliplatin-induced hyperalgesia (CIPN), mechanical nociceptive threshold after topical administration; settings: oxaliplatin 2 mg/kg i.v. day 0, day 14 topical morphine 0.1 μg/μl with protamine 2 μg/μl, 30 μL on dorsum of hind paw, 30 and 60 min, P<0.0001
Description: Female rats received oxaliplatin (2 mg/kg, i.v.) on day 0. On day 14, at which time oxaliplatin-induced hyperalgesia was established, morphine combined with protamine or protamine alone (dissolved in distillated water-dH20) or morphine (using saline as a vehicle), each in a volume of 30 μL, was administered topically on the dorsum of one hind paw, at the site of nociceptive threshold testing. Protamine was used at a concentration of 2 μg/μl and morphine was used at a concentration of 0.1 μg/μl. Mechanical nociceptive threshold was evaluated before and 14 days after oxaliplatin administration, and again 30 and 60 minutes after topical drug administration. […] Two-way repeated measures ANOVA, F(6.18)=26.85, P<0.0001. Bonferroni's multiple comparison post-hoc test. n=3 per group.
Male rats received oxaliplatin (2 mg/kg, i.v.) on day 0. On day 14, at which time oxaliplatin-induced hyperalgesia was established, morphine combined with protamine or protamine alone, each in a volume of 30 μL, was administered topically on the dorsum of one hind paw, at the site of nociceptive threshold testing. Protamine was used at a concentration of 2 μg/μl and morphine was used at a concentration of 0.1 μg/μl. Mechanical nociceptive threshold was evaluated before and 14 days after oxaliplatin administration, and again 30 and 60 minutes after topical administration. […]

[3] = system: PGE2 hyperalgesia in rats; assay: PGE2-induced hyperalgesia, mechanical nociceptive threshold after topical administration; settings: male rats; PGE2 100 ng/5 μL i.d.; 10 min later topical morphine 0.1 μg/μl with protamine 2 μg/μl, 30 μL; 30 and 60 min; P=0.0366
Description: Male rats received PGE2 (100 ng/5 μL, intradermally, i.d.), on the dorsum of the hind paw followed, 10 minutes later, by morphine combined with protamine or protamine alone (dissolved in distillated water-dH20) or morphine (using saline as a vehicle), each in a volume of 30 μL, was administered topically on the dorsum of one hind paw, at the site of the i.d. PGE2 injection. Protamine was used at a concentration of 2 μg/μl and morphine was used at a concentration of 0.1 μg/μl. Mechanical nociceptive threshold was evaluated before intradermal PGE2 and again 30 and 60 min after topical administration. […] Two-way repeated measures ANOVA, F(2.8)=4.25, *P=0.0366. Bonferroni's multiple comparison post-hoc test. Data shown as mean±SEM; n=3 paws, per group.

Compound | effect on carrageenan-induced hyperalgesia (mechanical nociceptive threshold) [1] | effect on oxaliplatin-induced hyperalgesia (mechanical nociceptive threshold) ([2]; female rats) | effect on oxaliplatin-induced hyperalgesia (mechanical nociceptive threshold) ([2]; male rats) | effect on PGE2-hyperalgesia (mechanical nociceptive threshold) [3]
COc1ccc2c(c1)c(CC(=O)O)c(C)n2C(=O)c1ccc(Cl)cc1 [indomethacin] | attenuated carrageenan-induced hyperalgesia | – | – | –
CN1CC[C@]23c4c5ccc(O)c4O[C@H]2[C@@H](O)C=C[C@H]3[C@H]1C5 [morphine] | – | attenuated oxaliplatin-induced hyperalgesia | attenuated oxaliplatin-induced hyperalgesia | significant attenuation of PGE2-hyperalgesia
